Broadly, the melting point is the temperature, or range, at which the solid turns liquid.

For `Cn1c(C(F)(F)F)cc(=O)n(-c2ccc3snc(-c4sccc4CO)c3c2)c1=O`, the melting point was in the range of 168 to 169 °C.

`CC(=O)NCCCc1cccc2c1CC(CCCCc1ccccc1)O2` (stereo not given): the melting point lay in the range of 40 to 41 °C.

The compound `COc1ccc2c(C(=O)Nc3ccc(F)c(C(F)(F)F)c3)nsc2c1` returned a melting point of 157 °C.

Regarding `Brc1ccc(C(Br)Br)nc1`, the melting point lay in the range of 59 to 61 °C.

On to `CCOC(=O)c1ccc(C(F)(F)F)cc1N`, for which the melting point was in the range of 42 to 43 °C.

In turn, `CCCCCCCCCCCCCCCCCC(=O)c1ccc(C(=O)O)c(Cl)c1` gave a melting point of 96 to 102 °C.

`CCNC(=O)c1cc(Cl)ccc1[Si](C)(C)C`: the melting point was 104 to 105 °C.

For `O=[N+]([O-])c1cnn2c1NCCC2`, the melting point was 251 to 252 °C.

Compound `COc1cc2c(cc1OC)Sc1ccccc1C(Cl)C2` (stereo not given) gave a melting point of 155 to 160 °C.

`C[C@H](c1ccccc1)n1c(=O)c2c(Cl)cc(Cl)cc2n(Cc2ccccc2)c1=O` registered a melting point of 93 to 97 °C.

The compound `Cc1nc2c(NC(=O)C(C)(C)C)cccn2c1Cl` yielded a melting point of 117 to 118 °C.

Consider `CN(CCc1cccc(OCc2ccccc2)c1)c1cnc(-c2ccccc2)c(-c2ccccc2)n1`, for which the melting point fell in the range of 78 to 78.5 °C.

In turn, `CCCN(C(=O)Cl)C(=O)CCl` came in with a melting point of 40 to 44 °C.

Take `CCN(CC)C(=O)c1ccoc1-c1ccc(C(F)(F)F)cc1`: the melting point lay within 45 to 48 °C.

In the case of `N#CC(C(N)=O)c1ccccc1[N+](=O)[O-]` (stereo not given), the melting point lay in the range of 172 to 174 °C.

Compound `O=C(CN1CCN(c2ccncc2)CC1)c1ccc(CC(O)=S)cc1` came in with a melting point of 240 to 244 °C.

`O=C(NO)c1ccc(CNC(=O)c2[nH]c(-c3ccccc3)cc2-c2ccc(O)cc2)cc1`: the melting point fell in the range of 139 to 141 °C.

With `CCCCNc1cc(C)nc2cn[nH]c12`, the melting point is 160 to 170 °C.

For the compound `O=c1ccc(-c2ccccc2O)n[nH]1`, the melting point lay in the range of 289 to 302 °C.

`NCCCc1csc(N=C2NCCCN2)n1` displayed a melting point of 116 °C.

`CC(C)(C)OC(=O)COc1ccc(NC(=O)OCc2ccccc2)cc1` registered a melting point of 109 to 110 °C.

In turn, `O=C1CC(=O)CC(c2ccccc2Cl)C1` showed a melting point of 157 to 158 °C.

For the compound `O=C(O)CCc1cn(Cc2ccc(OCc3csc(-c4ccccc4)n3)cc2)nc1-c1cccs1`, the melting point fell in the range of 133 to 134 °C.

Consider `CC(=O)NC[C@H]1NC(=O)[C@H]1NC(=O)Cc1ccccc1` (relative stereo), for which the melting point lay within 200 to 202 °C.

In turn, `COc1ccc([C@@H]2CC=CC[C@H]2[N+](=O)[O-])cc1OC` (racemic) showed a melting point of 114 to 116 °C.

For the compound `CC(C)NN(C[C@@H](O)[C@H](Cc1ccccc1)NC(=O)OCc1ccccc1)C(=O)OC(C)(C)C`, the melting point fell in the range of 118 to 120 °C.

`COc1ccc(N2C(=O)C(O[Si](C(C)C)(C(C)C)C(C)C)C2C=Cc2ccco2)cc1` (stereo not given) came in with a melting point of 104 to 106 °C.

With `O=C(CCCCCCC1=CC(O)CC1=O)Oc1ccc(NC(=O)c2ccccc2)cc1` (stereo not given), the melting point lay within 168 to 169 °C.

`CCNC(=O)Nc1ccc(-c2ccc3nnn(Cc4ccc5ncccc5c4)c3n2)cc1` registered a melting point of 193 to 196 °C.

With `CN(C)CC1CCc2cc(NC(=O)N3CCC(c4ccc(F)cc4)CC3)ccc2C1O` (stereo not given), the melting point is 160 to 163 °C.

For `CCOc1ccc(F)c(CCN=C(N)Nc2ccc(Br)cn2)c1Cl`, the melting point is 169 to 172 °C.

Regarding `O=S(CCCCNC(P(=O)(O)O)P(=O)(O)O)c1ccccn1` (stereo not given), the melting point fell in the range of 235 to 240 °C.

As to `COC(=O)[C@H](Cc1ccc([N+](=O)[O-])cc1)NC(=O)c1ccccc1F`, the melting point was 137 to 139 °C.

`N#Cc1ccc2c(c1)S(=O)c1ccccc1CC2=O` (stereo not given) yielded a melting point of 219 to 221 °C.

For `CCOc1ncnc2c(N3CCOCC3)nc(N3CCNCC3)nc12`, the melting point lay within 168 to 170 °C.

As to `CCCCCCCCCCCCCCOc1ccc(C(=O)Cc2ccc([N+](=O)[O-])cc2)cc1`, the melting point was in the range of 84 to 85 °C.

Turning to `O=c1[nH]c2cc(Cl)ccc2c(=O)n1S(=O)(=O)c1ccc([N+](=O)[O-])cc1`, the melting point is above 250 °C.

In turn, `CC=CCn1c(C)c(C)c2cnnc(OCc3ccc(Cl)cc3F)c21` yielded a melting point of 106 to 109 °C.

In turn, `COC(=O)C1CC(C#N)(c2ccccc2)CCC1=O` (stereo not given) displayed a melting point of 75 to 80 °C.

Regarding `Cc1nc(-c2ccc(-c3ccccc3S(=O)(=O)Nc3onc(C)c3C)cc2)oc1C`, the melting point was 96 to 102 °C.

Compound `O=CN(CCOc1ccc2ccccc2c1)c1ccc(C(=O)C(=O)O)cc1` had a melting point of 155 to 156 °C.

In the case of `O=C(O)c1ccc(COCc2csc3nc(C(=O)NCc4ccccc4)[nH]c(=O)c23)cc1`, the melting point was 268 to 269 °C.

As for `CC(C)COC(=O)c1ccc(OCC(=NO)c2ccc3c(c2)C(C)(C)CCC3(C)C)cc1O`, the melting point was 96 °C.

The compound `Cn1c(COc2ccc(CC3SC(=O)NC3=O)cc2)nc2ccc(OCc3ccccc3)nc21` (stereo not given) returned a melting point of 210 to 211 °C.

In the case of `COc1cc(C=CC(=O)c2cc(OC)c(OC)c(OC)c2)cc(C(F)(F)F)c1O`, the melting point was in the range of 190 to 192 °C.

Regarding `CCN(CC)C(=O)c1cc(C)nc([N+](=O)[O-])c1`, the melting point was in the range of 90 to 91 °C.

`O=C(c1cccs1)c1cc(Cc2ccccc2)c(O)c2ccccc12` yielded a melting point of 150 to 152 °C.

`CC(C)c1cc(C(=O)Nc2cccc(C(=O)O)c2)oc1C(C)C` returned a melting point of 244 to 245 °C.

In the case of `Nc1cccc2c1CCNC2`, the melting point was in the range of 153 to 154 °C.

For the compound `CC1(Cc2ccccc2)COc2cc(C(=O)O)ccc21` (stereo not given), the melting point is 165 °C.

Compound `Cc1oc(-c2ccccc2)nc1CCOc1ccc(C[C@@H](C(=O)O)N2CCN(S(=O)(=O)c3ccccc3[N+](=O)[O-])CC2)cc1` had a melting point of 171 to 173 °C.

In turn, `CCCCOCCOc1ccc(-c2ccc3c(c2)C=C(C(=O)Nc2ccc(SCc4nncn4CC(C)C)cc2)CCN3CCC)cc1` gave a melting point of 130 to 132 °C.

Take `CCOc1cc(OCC(=O)OCc2ccccc2)cc2c1C(=O)N(COC(=O)c1c(Cl)cccc1Cl)S2(=O)=O`: the melting point was in the range of 157 to 158 °C.

The compound `O=[N+]([O-])c1ccccc1NCc1ccccc1` returned a melting point of 65 to 67 °C.

In the case of `Cc1c(CC(=O)O)c2cc3c(cc2n1C(=O)c1ccc(Cl)cc1)OCO3`, the melting point fell in the range of 190 to 191 °C.

As for `CC(=O)Nc1cnc(C2OCCO2)cc1C`, the melting point lay in the range of 98 to 99 °C.

`O=C1CCc2cc(C(O)c3ccccc3)ccc2N1` (stereo not given) had a melting point of 175 °C.

In turn, `O=C(O)Cc1ccc(NC(=O)CCCCCNC(=O)OCc2ccccc2)cc1` showed a melting point of 136 to 138 °C.

In turn, `COC(=O)CN1C(=O)CC1SCc1ccc(OC)cc1` (stereo not given) displayed a melting point of 45 to 46 °C.

Turning to `CN1CC(C(=O)c2c[nH]cc2Cc2ccc(F)cc2)=C(O)C1=O`, the melting point fell in the range of 265 to 267 °C.

The compound `O=C(O)c1cccc(-n2cnc3cc(-c4ccccc4)ccc32)c1` gave a melting point of 289 to 291 °C.

Take `CCc1ccc(Nc2nc3cc(NC(=O)c4ccc(Cl)cc4)ccc3o2)cc1`: the melting point was above 250 °C.

For `CC(=O)Nc1ccc(C2=NC(C)(C)C(c3ccncc3)C2)cc1` (stereo not given), the melting point lay within 222 to 225 °C.

Compound `Nc1nc(=O)n(C2CC(O)C(CO)O2)cc1-c1ccccn1` (stereo not given) showed a melting point of 197 to 198 °C.

On to `O=CNNc1cccc([N+](=O)[O-])c1`, for which the melting point fell in the range of 168 to 169 °C.

`CCCCCC(C)C(C)c1cc(O)c2c(c1)OC(C)(C)C1=C2CN(CC(=O)O)CC1` (stereo not given) showed a melting point of 192 to 195 °C.

With `O=C1c2ccccc2COc2c(Br)cccc21`, the melting point lay in the range of 127 to 130 °C.

Regarding `Nc1nc(NC2CCCCC2)nc(NC2CCCCC2)n1`, the melting point is 153 °C.

As to `COc1cc2c(c(Cl)c1Cl)SCC2=O`, the melting point was in the range of 178 to 180 °C.

`C#Cc1ccc2c(c1)c1cc(-c3ccc(Cl)cc3Cl)c(=O)n(C)c1n2C`: the melting point fell in the range of 184 to 185 °C.

In turn, `O=[N+]([O-])c1cc2nc(O)c(O)nc2c2ncccc12` displayed a melting point above 300 °C.

`CC(C)NC1CCCCC1O` (stereo not given): the melting point lay in the range of 54 to 55 °C.

Compound `Cc1c(CO)ncn1C` came in with a melting point of 161 to 163 °C.

In turn, `CCOC(=O)c1c(N(C)C)c2cc(C)ccc2n(Cc2ccccc2)c1=O` came in with a melting point of 96 to 103 °C.

In the case of `C=CC[C@H]1C(=O)N(S(=O)(=O)c2ccc3ccccc3c2)[C@H]2CCN(C(=O)OCc3ccccc3)[C@H]12` (relative stereo), the melting point lay within 158 to 160 °C.

As for `COc1ccc(C(CN(C)C(=O)/C=C/c2cccnc2)=NO)cc1OC`, the melting point was 172 to 173 °C.

For the compound `O=C(Nc1cccc(C(=O)O)c1)OCc1ccccc1`, the melting point was in the range of 218 to 219 °C.

Take `O=c1c(Br)c(OCc2ccccc2)ccn1CCc1cccs1`: the melting point lay in the range of 128 to 130 °C.

Consider `CCCCCCCCCCNC(=O)c1ccc(C(=O)NCCCCCCCCCC)c(N(CC(=O)OC)CC(=O)OC)c1`, for which the melting point fell in the range of 76 to 78 °C.

Regarding `COc1ccc(OC)c(/C=C/C(=O)/C=C/C(=O)O)c1`, the melting point is 145 to 146 °C.

`CN1N=C(c2ccc(F)cc2)c2ccc(Cl)cc2CS1(=O)=O` returned a melting point of 250 to 251 °C.

In the case of `CC1=CC(COC(c2ccccc2)(c2ccccc2)c2ccccc2)O[C@H]1c1coc2c(N)ncnc12` (stereo not given in full), the melting point is 128 to 132 °C.

Regarding `Cc1ccc(C(=O)c2cccc3c2CCC3C(N)=O)cc1` (stereo not given), the melting point was 188 to 191 °C.

`CCN(CC)CC(=O)N1CCn2c(c(-c3ccccc3)c3cc(Cl)ccc32)C1`: the melting point is 117 to 119 °C.

For the compound `CC(C)(C)C(=O)OCc1nc2cc3c(cc2c(=O)[nH]1)CCC3`, the melting point was 185 to 190 °C.

Compound `CN1CC(CCN2CCN(c3ccc(Cl)c(Cl)c3)CC2)OC1=O` (stereo not given) returned a melting point of 89 to 91 °C.

Turning to `CC12CCC3C(CCC4CC=CCC43C)C1CC=C2I` (stereo not given), the melting point lay in the range of 71 to 72 °C.

Compound `c1ccc(Sc2cc(Sc3ccccc3)cc(Sc3ccccc3)c2)cc1` came in with a melting point of 40 to 41 °C.

`O=C1CCCN1C1=NC(CF)(CF)Oc2ccc([N+](=O)[O-])cc21` had a melting point of 195 to 198 °C.

The compound `COC(CC1=C(C#N)C(c2cccc3nonc23)c2c[nH]nc2N1)OC` (stereo not given) showed a melting point of 115 °C.

The record behind these values is a melting point compilation (Tetko et al.; mined from patent text by program, amines drawn as free bases though some values may be those of a salt).
